Test results from patent publication US20090324754A1, “EUCALYPTUS EXTRACT, METHOD OF PREPARATION AND THERAPEUTIC USES THEREOF” (Pierre Fabre Medicament, priority 2006, published 2009).

Biological target: T1, serotonin reuptake (Rattus norvegicus, UniProt P31652)
T1 construct: Synapses obtained from rat brains; from tissue; host or cells: rat brain synapses (synaptosomes)
Experiment: Serotonin (5-HT) reuptake, [3H]-serotonin uptake in rat brain synapses
Type: biochemical
Conditions: 0.3 μg of extract/ml of solution
Protocol: The uptake tests were carried out in vitro on synapses of rats.
The baseline activity is determined by incubating the same mixture for 15 minutes at 37° C. in the presence of 10 μM imipramine in order to block the reuptake.
Following the incubation, the samples are filtered rapidly in vacuo through glass-fibre filters (GB/B, Packard) and rinsed twice with ice-cold incubation buffer in order to eliminate free [^3H]-serotonin. The filters are dried and the retained radioactivity is measured by means of a scintillation counter (Topcount, Packard) using a scintillation cocktail (Microscint O, Packard).
The results are expressed as a percent inhibition of the control uptake of [^3H]-serotonin (see Table 1)

T1 sequence (P31652 whole entry): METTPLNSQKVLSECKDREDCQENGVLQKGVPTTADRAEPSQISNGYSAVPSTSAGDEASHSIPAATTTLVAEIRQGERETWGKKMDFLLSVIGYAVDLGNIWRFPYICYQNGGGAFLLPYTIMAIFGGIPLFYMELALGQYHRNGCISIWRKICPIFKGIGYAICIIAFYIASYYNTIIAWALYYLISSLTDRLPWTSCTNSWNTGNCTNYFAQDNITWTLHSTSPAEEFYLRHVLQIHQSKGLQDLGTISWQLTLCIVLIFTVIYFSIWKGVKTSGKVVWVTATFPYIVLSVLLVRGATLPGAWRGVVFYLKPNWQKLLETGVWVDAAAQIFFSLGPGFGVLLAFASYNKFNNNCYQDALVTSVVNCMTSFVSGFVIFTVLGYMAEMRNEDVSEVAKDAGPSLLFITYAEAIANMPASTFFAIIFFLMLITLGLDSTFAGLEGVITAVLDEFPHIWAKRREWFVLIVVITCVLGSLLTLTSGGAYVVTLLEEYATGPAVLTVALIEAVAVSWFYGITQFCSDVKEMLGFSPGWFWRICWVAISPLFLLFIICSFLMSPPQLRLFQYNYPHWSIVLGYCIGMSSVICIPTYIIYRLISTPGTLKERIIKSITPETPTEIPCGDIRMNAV

## C=C1CCC2C(C3C1CCC3(C)C(CC(C)C)c1c(O)c(C=O)c(O)c(C=O)c1O)C2(C)C (stereo not shown) [Macrocarpal G, 5-(1-(3,3,11-trimethyl-7-methylene-tricyclo(6.3.0.0(2,4))undec-11-yl)-3-methylbutyl)-2,4,6-trihydroxybenzene-1,3-dicarbaldehyde]
  % inhibition of serotonin reuptake: 103.8%
